In patent publication US20250388574A1, “HETEROCYCLIC COMPOUNDS AS TRIGGERING RECEPTOR EXPRESSED ON MYELOID CELLS 2 AGONISTS AND METHODS OF USE” (AMGEN INC., priority 2020, published 2025):
pEC50: −log10 of the molar value.

Target: hTREM2 (Homo sapiens, UniProt Q9NZC2)
Assay: Phospho-Syk AlphaScreen/AlphaLISA assay in TREM2 and DAP12 overexpressing HEK293 cells (Example A1)
Assay type: cell-based
Design: expressed in transfected cells
Details: HEK293 cells; for pEC50: read-out: hTREM2 EC50
In short: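 Single-cell-cloned HEK293 stably overexpressing TREM2 and DAP12, plated 20,000 cells/well for 20 h, then exposed to compounds (1% DMSO) 45 min at room temperature. Lysates probed for phospho-Syk by AlphaLISA sandwich (anti-pSyk, biotinylated anti-Syk); signal normalized to percent of control (100 nM anti-TREM2 antibody vs isotype) and fitted by 4-parameter logistic.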

Chain of hTREM2 (Q9NZC2 19-230): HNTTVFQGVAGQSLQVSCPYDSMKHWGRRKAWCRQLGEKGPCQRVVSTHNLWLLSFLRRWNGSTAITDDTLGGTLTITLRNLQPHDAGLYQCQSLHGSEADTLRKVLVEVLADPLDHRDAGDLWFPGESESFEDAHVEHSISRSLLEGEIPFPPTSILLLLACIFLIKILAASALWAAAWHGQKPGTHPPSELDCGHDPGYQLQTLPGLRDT
Chain of hTREM2 (O43914 22-113 partner): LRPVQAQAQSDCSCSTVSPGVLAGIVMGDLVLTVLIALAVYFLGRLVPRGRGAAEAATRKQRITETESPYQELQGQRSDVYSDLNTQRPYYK

Row | Compound | Emax | pEC50
1 | Cc1nc2cc(N3CCCC(C)(c4ccccc4)C3)nc(-c3ccc(Cl)cc3F)c2c(=O)n1C (stereo not drawn) [Example 103, 5-(4-chloro-2-fluorophenyl)-2,3-dimethyl-7-(3-methyl-3-phenyl-1-piperidinyl)pyrido[4,3-d]pyrimidin-4(3H)-one] | + (Emax>45 and ≤100) | 4.00 to 5.52
2 | ethyl (2R,4S)-4-(5-(4-chloro-2-fluorophenyl)-2,3-dimethyl-4-oxo-3,4-dihydropyrido[4,3-d]pyrimidin-7-yl)tetrahydro-2H-pyran-2-carboxylate and ethyl (2S,4R)-4-(5-(4-chloro-2-fluorophenyl)-2,3-dimethyl-4-oxo-3,4-dihydropyrido[4,3-d]pyrimidin-7-yl)tetrahydro-2H-pyran-2-carboxylate [Example 167] | ++++ (Emax>300) | 6.30 to 7.30
3 | Cc1cc([C@H]2CN(c3cc4nc(C)n(C)c(=O)c4c(-c4ccc(Cl)cc4F)n3)CCO2)ccn1 [Example 61, 5-(4-chloro-2-fluorophenyl)-2,3-dimethyl-7-((2S)-2-(2-methyl-4-pyridinyl)-4-morpholinyl)pyrido[4,3-d]pyrimidin-4(3H)-one] | +++ (Emax>200 and ≤300) | > 7.30
4 | Cc1nc2cc(N3CCO[C@H](c4ccncc4)C3)nc(-c3ccc(Cl)cc3F)c2c(=O)n1C (single isomer, unassigned) [Example 48] | +++ (Emax>200 and ≤300) | 5.52 to 6.30
5 | COc1cccc([C@@H]2CN(c3cc4nc(C)n(C)c(=O)c4c(-c4ccc(Cl)cc4F)n3)CCO2)c1 [Example 238, (R)-5-(4-chloro-2-fluorophenyl)-7-(2-(3-methoxyphenyl)morpholino)-2,3-dimethylpyrido[4,3-d]pyrimidin-4(3H)-one] | ++++ (Emax>300) | 6.30 to 7.30
6 | Cc1nc2cc(N3CCC[C@H](c4ccncc4)C3)nc(-c3ccc(Cl)cc3F)c2c(=O)n1C (single isomer, unassigned) [Example 114] | +++ (Emax>200 and ≤300) | 6.30 to 7.30
7 | Cc1nc2cc([C@@H]3CCO[C@H](c4cnn(C)c4)C3)nc(-c3ccc(Cl)cc3F)c2c(=O)n1C (single isomer, unassigned) [Example 163] | +++ (Emax>200 and ≤300) | 4.00 to 5.52
8 | CCCn1c(C)nc2cc(N3CCO[C@@H](CF)C3)nc(-c3ccc(Cl)cc3F)c2c1=O [Example 192, (R)-5-(4-chloro-2-fluorophenyl)-7-(2-(fluoromethyl)morpholino)-2-methyl-3-propylpyrido[4,3-d]pyrimidin-4(3H)-one] | ++++ (Emax>300) | 5.52 to 6.30
9 | CCCn1c(C)nc2cc(N3CCO[C@@H](c4ccnn4C)C3)nc(-c3ccc(Cl)cc3F)c2c1=O [Example 155, 5-(4-chloro-2-fluorophenyl)-2-methyl-7-((2R)-2-(1-methyl-1H-pyrazol-5-yl)-4-morpholinyl)-3-propylpyrido[4,3-d]pyrimidin-4(3H)-one] | ++++ (Emax>300) | 6.30 to 7.30
10 | Cc1nc2cc(N3CCC[C@H](c4cn[nH]c4)C3)nc(-c3ccc(Cl)cc3F)c2c(=O)n1C (single isomer, unassigned) [Example 108] | ++++ (Emax>300) | 6.30 to 7.30
11 | Cc1nc2cc(N3CCO[C@@H](c4cnn(C)c4)C3)nc(-c3ccc(F)cc3)c2c(=O)n1C [Example 229, (S)-5-(4-fluorophenyl)-2,3-dimethyl-7-(2-(1-methyl-1H-pyrazol-4-yl)morpholino)pyrido[4,3-d]pyrimidin-4(3H)-one] | ++++ (Emax>300) | 5.52 to 6.30
12 | Cc1ccc(-c2nc(N3CCO[C@@H](c4cnn(C)c4)C3)cc3nc(C)n(C)c(=O)c23)c(F)c1 [Example 12, 5-(2-fluoro-4-methylphenyl)-2,3-dimethyl-7-((2S)-2-(1-methyl-1H-pyrazol-4-yl)-4-morpholinyl)pyrido[4,3-d]pyrimidin-4(3H)-one] | – | 6.30 to 7.30
13 | Cc1nc2cc(N3CCO[C@@H](c4cnn(C)c4)C3)nc(-c3ccc(Cl)c(F)c3F)c2c(=O)n1C [Example 14, 5-(4-chloro-2,3-difluorophenyl)-2,3-dimethyl-7-((2S)-2-(1-methyl-1H-pyrazol-4-yl)-4-morpholinyl) pyrido[4,3-d]pyrimidin-4(3H)-one] | ++++ (Emax>300) | 6.30 to 7.30
14 | Cc1nc2cc(N3CCOC(c4ccnnc4)C3)nc(-c3ccc(Cl)cc3F)c2c(=O)n1C (stereo not drawn) [Example 50, 5-(4-chloro-2-fluorophenyl)-2,3-dimethyl-7-(2-(4-pyridazinyl)-4-morpholinyl)pyrido[4,3-d]pyrimidin-4(3H)-one] | ++++ (Emax>300) | 6.30 to 7.30
15 | Cc1nc2cc(N3CCO[C@H]([C@@H]4CCO4)C3)nc(-c3ccc(Cl)cc3F)c2c(=O)n1C [Example 269, 5-(4-chloro-2-fluorophenyl)-2,3-dimethyl-7-((S)-2-((S)-oxetan-2-yl)morpholino)pyrido[4,3-d]pyrimidin-4(3H)-one] | ++++ (Emax>300) | 5.52 to 6.30
16 | Cc1nc2cc(N3CCO[C@H](C4CC4)C3)nc(-c3ccc(Cl)cc3F)c2c(=O)n1C [Example 194, (R)-5-(4-chloro-2-fluorophenyl)-7-(2-cyclopropylmorpholino)-2,3-dimethylpyrido[4,3-d]pyrimidin-4(3H)-one] | +++ (Emax>200 and ≤300) | 4.00 to 5.52

Row | Compound | Emax | pEC50
17 | CCn1cc([C@@H]2CN(c3cc4nc(C)n(C)c(=O)c4c(-c4ccc(Cl)cc4F)n3)CCO2)cn1 [Example 197, (R)-5-(4-chloro-2-fluorophenyl)-7-(2-(1-ethyl-1H-pyrazol-4-yl)morpholino)-2,3-dimethylpyrido[4,3-d]pyrimidin-4(3H)-one] | ++++ (Emax>300) | 6.30 to 7.30
18 | Cc1nc2cc(N3CCO[C@@H](c4cnn(C5COC5)c4)C3)nc(-c3ccc(Cl)cc3F)c2c(=O)n1C [Example 125, 5-(4-chloro-2-fluorophenyl)-2,3-dimethyl-7-((2S)-2-(1-(3-oxetanyl)-1H-pyrazol-4-yl)-4-morpholinyl)pyrido[4,3-d]pyrimidin-4(3H)-one] | ++++ (Emax>300) | > 7.30
19 | Cc1nc2cc(N3CC[C@H](c4cnn(C)c4)C3)nc(-c3ccc(Cl)cc3F)c2c(=O)n1C [Example 202, (R)-5-(4-chloro-2-fluorophenyl)-2,3-dimethyl-7-(3-(1-methyl-1H-pyrazol-4-yl)pyrrolidin-1-yl)pyrido[4,3-d]pyrimidin-4(3H)-one] | +++ (Emax>200 and ≤300) | 4.00 to 5.52
20 | Cc1nc2cc(N3CCO[C@@H](c4cnn(C)c4)C3)nc(-c3cc(F)c(Cl)cc3F)c2c(=O)n1C [Example 11, 5-(4-chloro-2,5-difluorophenyl)-2,3-dimethyl-7-((2S)-2-(1-methyl-1H-pyrazol-4-yl)-4-morpholinyl)pyrido[4,3-d]pyrimidin-4(3H)-one] | ++++ (Emax>300) | 6.30 to 7.30
21 | Cc1nc2cc(N3CCOC(c4cncnc4)C3)nc(-c3ccc(Cl)cc3F)c2c(=O)n1C (stereo not drawn) [Example 51, 5-(4-chloro-2-fluorophenyl)-2,3-dimethyl-7-(2-(5-pyrimidinyl)-4-morpholinyl)pyrido[4,3-d]pyrimidin-4(3H)-one] | +++ (Emax>200 and ≤300) | 6.30 to 7.30
22 | Cc1nc2cc(N3CCO[C@H]([C@@H]4CCOC4)C3)nc(-c3ccc(Cl)cc3F)c2c(=O)n1C (single isomer, unassigned) [Example 45] | – | 5.52 to 6.30
23 | Cc1nc2cc(N3CCc4ccncc4C3)nc(-c3ccc(Cl)cc3F)c2c(=O)n1C [Example 102, 5-(4-chloro-2-fluorophenyl)-7-(3,4-dihydro-2,7-naphthyridin-2(1H)-yl)-2,3-dimethylpyrido[4,3-d]pyrimidin-4(3H)-one] | +++ (Emax>200 and ≤300) | 6.30 to 7.30
24 | CCCn1c(C)nc2cc(N3CCO[C@H](CC)C3)nc(-c3ccc(Cl)cc3F)c2c1=O [Example 187, (R)-5-(4-chloro-2-fluorophenyl)-7-(2-ethylmorpholino)-2-methyl-3-propylpyrido[4,3-d]pyrimidin-4(3H)-one] | ++++ (Emax>300) | 5.52 to 6.30
25 | Cc1nc2cc(N3CCO[C@H]([C@@H]4CCO4)C3)nc(-c3ccc(Cl)cc3F)c2c(=O)n1C (single isomer, unassigned) [Example 40] | +++ (Emax>200 and ≤300) | 5.52 to 6.30
26 | Cc1nc2cc(N3CCO[C@@H](c4noc(C5CC5)n4)C3)nc(-c3ccc(Cl)cc3F)c2c(=O)n1C (single isomer, unassigned) [Example 84] | ++++ (Emax>300) | 5.52 to 6.30
27 | Cc1nc2cc(N3CC[C@H](C4CC4)C3)nc(-c3ccc(Cl)cc3F)c2c(=O)n1C [Example 207, (R)-5-(4-chloro-2-fluorophenyl)-7-(3-cyclopropylpyrrolidin-1-yl)-2,3-dimethylpyrido[4,3-d]pyrimidin-4(3H)-one] | ++ (Emax>100 and ≤200) | 4.00 to 5.52
28 | COc1cc([C@H]2C[C@H](c3cc4nc(C)n(C)c(=O)c4c(-c4ccc(Cl)cc4F)n3)CCO2)ccn1 (single isomer, unassigned) [Example 174] | ++++ (Emax>300) | 6.30 to 7.30
29 | Cc1nc2cc(C3=CC(c4cnn(C)c4)OCC3)nc(-c3ccc(Cl)cc3F)c2c(=O)n1C (racemic) [Example 164, 5-(4-chloro-2-fluorophenyl)-2,3-dimethyl-7-(6-(1-methyl-1H-pyrazol-4-yl)-3,6-dihydro-2H-pyran-4-yl)pyrido[4,3-d]pyrimidin-4(3H)-one] | +++ (Emax>200 and ≤300) | 6.30 to 7.30
30 | Cc1nc2cc(N3CCO[C@](C)(c4cnn(C)c4)C3)nc(-c3ccc(Cl)cc3F)c2c(=O)n1C [Example 225, (R)-5-(4-chloro-2-fluorophenyl)-2,3-dimethyl-7-(2-methyl-2-(1-methyl-1H-pyrazol-4-yl)morpholino)pyrido[4,3-d]pyrimidin-4(3H)-one] | ++++ (Emax>300) | 5.52 to 6.30
31 | Cc1nc2cc(N3CCC(F)(F)[C@@H](c4cnn(C)c4)C3)nc(-c3ccc(Cl)cc3F)c2c(=O)n1C (single isomer, unassigned) [Example 118] | +++ (Emax>200 and ≤300) | 6.30 to 7.30
